Test results: patent publication US9521845B2, “Beta-lactones as antibacterial agents” (LUDWIG-MAXIMILIANS-UNIVERSITÄT-MÜNCHEN, priority 2008, dated 2016)

Experiments:
[1] = tested on: haemolysis abilities of Staphylococcus aureus; assay: Blood agar plate-based haemolysis assay; format: cell-based
Description: FIG. 3: Blood agar plate-based assay illustrating that beta-lactones have an effect on the haemolysis abilities of Staphylococcus aureus. 2.5 μL of S. aureus LB dilution (OD600=0.13 corresponding to approx. 1×10^8 cfu/ml) and 2.5 μL DMSO/lactone in DMSO were applied on Whatman Cards placed on 5% sheep blood agar plates (Heipha Diagnostika, Eppelheim, Germany) and incubated at 37° C. over night. A) Direct comparison of beta-lactones as shown in FIG. 2 at a total amount of 250 nmol applied on Whatman Cards. B) Dose down with beta-lactone compounds D3, E2 and G2 at applied concentrations of 100 mM, 50 mM, 25 mM, 12.5 mM, 6.25 mM and 0 mM (corresponding to total amounts of 250 nmol, 125 nmol, 62.5 nmol, 31.3 nmol, 15.6 nmol and 0 nmol, respectively).
2.5 μl, of S. aureus LB dilution (OD600 0.13 corresponding to approx. 1×10^8 cfu/ml) and 2.5 μL DMSO/beta-lactone in DMSO were applied on Whatman Cards placed on 5% sheep blood agar plates (Heipha Diagnostika, Eppelheim, Germany) and incubated at 37° C. over night. FIG. 3A directly compares the β-lactones at a total amount of 250 nmol applied on Whatman Cards. […] For D3 almost no haemolysis is observed down to a total amount of 125 nmol lactone. FIG. 5 illustrates the haemolytic activity of beta-lactone compounds D3, E2 and G2 plotted against the total amount of the respective beta-lactone, whereby a haemolysis zone size of 1.5 mm was set as 100% haemolytic activity. The data shown in FIG. 5 has been corroborated by further experimental testing.
Haemolysis was tested on blood agar plates (5% sheep blood; Heipha Diagnostika, Eppelheim, Germany). Sterile circles of Whatman cards (No. Y) with 5 mm diameter were placed on agar plates and inoculated with 2.5 μL of the corresponding beta-lactone/DMSO and 2.5 μL stationary phase culture of S. aureus diluted to […]. The plates were incubated over night at 37° C. and the diameters of the zones around the bacterial colonies were precisely measured using a vernier caliper.

[2] = tested on: β-Ketoacyl acyl carrier protein synthase II (KAS II); assay: ABPP labeling of bacterial proteomes, KAS II; format: binding, L. welshimeri, B. subtilis; conditions: 50 μM probe, FIGS. 9A and 9B
Excerpt: The library of beta-lactones to be tested comprised compounds with aliphatic or aromatic substitutions varying in length and branching. To evaluate the target selectivity, the beta-lactones were screened against several gram-positive and gram-negative bacterial proteomes including Pseudomonas putida, Listeria welshimeri, Bacillus licheniformis, Bacillus subtilis and Escherichia coli, which are phylogenetically related to pathogenic strains. In addition, mouse liver cytosol was included as an eukaryotic reference proteome. Initial labeling experiments were carried out by adding individual probes at 50 μM concentration to the proteome which is sufficient to achieve full saturation of most targets. […] As an example, labeling of L. welshimeri cytosolic and membrane proteomes as well as B. subtilis cytosolic proteome with a subset of the most complementary probes is shown in FIGS. 9A and 9B. […] Most of the targeted proteins were of low abundance as shown by the direct comparison of the relative intensities observed with Coomassie staining vs. fluorescence scanning (FIG. 11).
Proteome samples were adjusted to a final concentration of 1 mg protein/mL by dilution in PBS prior to probe labeling. […]

ClpP = molecular target: T1, ClpP (Listeria monocytogenes serovar 1/2a, UniProt Q9RQI6); assay: In vivo labeling of Listeria proteomes; format: cell-based; conditions: living L. monocytogenes EGDe, cytosol, 2 h incubation
T1 construct: endogenous in cells; host or cells: living Listeria monocytogenes EGDe, stationary phase
T1 sequence (Q9RQI6 whole entry): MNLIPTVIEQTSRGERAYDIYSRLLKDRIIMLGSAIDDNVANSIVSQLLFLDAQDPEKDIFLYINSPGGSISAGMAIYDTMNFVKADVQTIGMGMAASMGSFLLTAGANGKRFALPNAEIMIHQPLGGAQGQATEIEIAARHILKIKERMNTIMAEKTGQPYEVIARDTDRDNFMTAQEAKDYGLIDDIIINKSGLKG
Description: For analytical and preparative in vivo studies, Listeria were grown to stationary phase and harvested by centrifugation at 4,000 rpm 1 h after entrance in the stationary phase (1.5 ml for analytical and 15 ml for preparative studies). The cell pellets were washed once with PBS and resuspended in 100 μL and 500 μL PBS for analytical and preparative studies, respectively. The cell suspensions were incubated for 2 h with varying concentrations of probe at room temperature. Probes were applied from DMSO stocks whereby DMSO never exceeded 2% in the final solution. For preparative experiments, 50 μM of the probes was added to the cells resuspended in PBS. After incubation, the cells were washed thoroughly three times with PBS to remove excess probe from the supernatant. Subsequently the cells were lysed in 100 μL (500 μL) PBS by sonication with a Bandelin Sonopuls with 3×20 sec. pulsed at 70% max. power. For analytical experiments 44 μL proteome were used to append a reporter tag via CC, such that once CC reagents were added, the total reaction volume was 50 μL. In preparative purposes the total volume of 500 μL it was consumed per experiment. Reporter tagged-azide reagents (13 μM rhodamine-azide for analytical or 20 μM rhodamine-biotin-azide for preparative scale) were added followed by 1 mM TCEP and 100 μM ligand. Samples were gently vortexed and the cycloaddition initiated by the addition of 1 mM CuSO4. The reactions were incubated at room temperature for 1 h. For analytical gel electrophoresis, 50 μL 2×SDS loading buffer were added and 50 μL applied on the gel. Fluorescence was recorded in a Fujifilm Las-3000 Fluoreszenz Darkbox with a Fujinon VRF 43LMD Lens, 605DF40 filter and 520 nm EPI excitation wavelength.

For `C#CCCCC1OC(=O)C1CCCCCCCC=C` (stereo not drawn) [D3, trans-3-(8-nonen-1-yl)-4-(4-pentyn-1-yl)oxetan-2-one], the “potency ranking in haemolysis dose down (E2, G2, D3)” value ([1]; FIG. 5 dose down) was “most active”, the “total amount down to which almost no haemolysis is observed” value ([1]; dose down 250-15.6 nmol) was 125 nmol and the “haemolytic activity of S. aureus” value ([1]; total amount of 250 nmol applied on Whatman Cards, 5% sheep blood agar, 37° C. over night) was “strongly reduce”. The “KAS II labeling” value [2] was “labeled” and the “ClpP labeling (probe potency ranking)” value (ClpP) was “most potent probes”.
